≈ marks a conversion by molar mass, not a printed value.
Columns and labels:
[1] = molecular target: T1, human recombinant AdamTS-5 (Homo sapiens, UniProt Q9UNA0); assay: Biochemical activity testing of ADAMTS-5: aggrecan peptide cleavage assay (AlphaScreen); conditions: 4.5 nM human recombinant AdamTS-5, biotinylated 43mer aggrecan peptide, 180 min at 37° C.; read-out: IC50 [ADAM-NTS5]M
T1 construct: purchased R&D systems, Wiesbaden, Germany
T1 sequence (Q9UNA0 262-930): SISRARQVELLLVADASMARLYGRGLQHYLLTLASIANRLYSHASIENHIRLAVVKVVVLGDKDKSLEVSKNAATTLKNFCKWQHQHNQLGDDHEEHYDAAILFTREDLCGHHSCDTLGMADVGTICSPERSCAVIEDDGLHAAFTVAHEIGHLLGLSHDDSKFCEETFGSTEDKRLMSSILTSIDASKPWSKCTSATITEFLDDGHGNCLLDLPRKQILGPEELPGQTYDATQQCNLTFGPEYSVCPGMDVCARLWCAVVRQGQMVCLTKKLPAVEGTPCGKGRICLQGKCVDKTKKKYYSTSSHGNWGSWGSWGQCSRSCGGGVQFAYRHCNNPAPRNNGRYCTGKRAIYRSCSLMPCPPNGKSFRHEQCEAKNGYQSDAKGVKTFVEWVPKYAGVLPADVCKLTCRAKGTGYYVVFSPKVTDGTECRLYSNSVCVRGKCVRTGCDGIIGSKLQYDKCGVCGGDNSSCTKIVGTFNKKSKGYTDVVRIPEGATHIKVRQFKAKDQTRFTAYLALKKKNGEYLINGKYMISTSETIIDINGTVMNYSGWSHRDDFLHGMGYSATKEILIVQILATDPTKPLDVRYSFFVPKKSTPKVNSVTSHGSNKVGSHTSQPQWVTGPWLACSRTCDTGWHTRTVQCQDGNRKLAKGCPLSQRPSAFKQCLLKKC
Method: ADAMTS-5 is a metallo protease with glutamyl-endoprotease activity and cleaves aggrecan core protein at E373-A374 in the interglobular domain. To fully analyse the inhibitory potential of compounds on AdamTS-5 activity an Alphascreen® assay with a biotinylated 43mer aggrecan oligopeptide as substrate was performed. Cleavage by ADAMTS-5 caused production of a neoepitop N-terminus ARGS at the C-terminal fragment. The detection of this product is performed with streptavidin-AlphaScreen® donor beads binding to the biotin label and an anti-neoepitop (“ARGSV”) antibody that anchors anti-mouse IgG-coated AlphaLisa® acceptor beads to the other end of the generated fragment. Thereby, donor and acceptor beads get in proximity and a luminescence Alphascreen® signal is generated via the release of singlet oxygen. The cleavage activity was detectable directly by the increase in Alphascreen® signal.
The aggrecan peptide cleavage assay was performed as 384 well AlphaScreen® (Perkin Elmer) assay format in Perkin Elmer 384 AlphaPlate (proxiplate) shallow well microtiter plates and was used for high throughput screen in a total assay volume of 10 μl. 4.5 nM human recombinant AdamTS-5 (R&D systems, Wiesbaden, Germany) and 30 nM biotinylated peptide […]-K(bio) (custom-made, Biosynthan, Berlin, Germany) as substrate were incubated in a total volume of 6 μl (100 mM Tris/HCl, 150 mM NaCl, 10 mM CaCl2, 0.05% Brij®-35, 1% DMSO, 0.084% BSA, pH 7.5) in the absence or presence of the test compound (10 dilution concentrations) for 180 min at 37° C. The reaction was stopped and the first detection step performed by the addition of 2 μl detection solution 1 (48 mM EDTA, 8 nM aggrecan antibody N-term neoepitope ARG, mouse monoclonal BC3 antibody (MDBioproducts, Egg, Switzerland), 100 μg/ml Streptavidin Alphascreen® donor beads (Perkin Elmer, Rodgau, Germany) in 100 mM Tris/HCl, 150 mM NaCl, 0.05% Brij®-35, 0.1% BSA, pH 7.5). After an one-hour incubation at 37° C. 2 μl of the second detection solution (25 μg/ml anti-mouse AlphaLisa® acceptor beads (Perkin Elmer, Rodgau, Germany) in 100 mM Tris/HCl, 150 mM NaCl, 0.05% Brij®-35, 0.1% BSA, pH 7.5 were added. The plates were incubated for […] in the dark.
The AlphaScreen signal was measured with an Envision multimode reader (Perkin Elmer LAS Germany GmbH) with the Alphascreen protocol from Perkin Elmer (laser mode) emission wavelength 570 nm. The full value used was the inhibitor-free reaction. For the zero value a pharmacological reference was used. The inhibitory values (IC50) for the compounds were determined using either the program Symyx Assay Explorer® or Condosseo® from GeneData.

[2] = Solubility pH7.4; assay type: physicochemical; conditions: pH 7.4, aqueous buffer

| IC50 [1] [nM] | solubility [2] [µg/mL] | SMILES |
| --- | --- | --- |
| 47 | 912 (≈ 1770 µM) | C[C@@H](C[C@H](NC(=O)c1ncc(-c2ccc(F)cc2)s1)C(=O)NC(C)(C)Cc1ccc(F)cc1)C(=O)O [Compound 2, (2S,4S)-4-[2-(4-Fluoro-phenyl)-1,1-dimethyl-ethylcarbamoyl]-4-{[5-(4-fluoro-phenyl)-thiazole-2-carbonyl]-amino}-2-methyl-butyric acid] |
| 180 | 798 (≈ 1610 µM) | C[C@@H](C[C@H](NC(=O)c1ccc(-c2ccn(C)n2)cc1)C(=O)NC(C)(C)Cc1ccc(F)cc1)C(=O)O [Compound 9, (2S,4S)-4-[2-(4-Fluoro-phenyl)-1,1-dimethyl-ethylcarbamoyl]-2-methyl-4-[4-(1-methyl-1H-pyrazol-3-yl)-benzoylamino]-butyric acid] |
| 250 | 648 (≈ 1270 µM) | C[C@@H](C[C@H](NC(=O)c1ccc(-c2ccccc2)cc1F)C(=O)NC(C)(C)Cc1ccc(F)cc1)C(=O)O [Compound 11, (2S,4S)-4-[(3-Fluoro-biphenyl-4-carbonyl)-amino]-4-[2-(4-fluoro-phenyl)-1,1-dimethyl-ethylcarbamoyl]-2-methyl-butyric acid] |
| 320 | 743 (≈ 1440 µM) | C[C@@H](C[C@H](NC(=O)C1CCN(c2ccc(F)cc2)CC1)C(=O)NC(C)(C)Cc1ccc(F)cc1)C(=O)O [Compound 12, (2S,4S)-4-[2-(4-Fluoro-phenyl)-1,1-dimethyl-ethylcarbamoyl]-4-{[1-(4-fluoro-phenyl)-piperidine-4-carbonyl]-amino}-2-methyl-butyric acid] |
| 360 | 924 (≈ 1850 µM) | C[C@@H](C[C@H](NC(=O)N1CCN(c2ccccc2)CC1)C(=O)NC(C)(C)Cc1ccc(F)cc1)C(=O)O [Compound 15, (2S,4S)-4-[2-(4-Fluoro-phenyl)-1,1-dimethyl-ethylcarbamoyl]-2-methyl-4-[(4-phenyl-piperazine-1-carbonyl)-amino]-butyric acid] |
| 390 | 365 (≈ 743 µM) | C[C@@H](C[C@H](NC(=O)c1ccc(-c2cccnc2)cc1)C(=O)NC(C)(C)Cc1ccc(F)cc1)C(=O)O [Compound 16, (2S,4S)-4-[2-(4-Fluoro-phenyl)-1,1-dimethyl-ethylcarbamoyl]-2-methyl-4-(4-pyridin-3-yl-benzoylamino)-butyric acid] |
| 1200 | 805 (≈ 1620 µM) | C[C@@H](C[C@H](NC(=O)N1CCC(c2ccccc2)CC1)C(=O)NC(C)(C)Cc1ccc(F)cc1)C(=O)O [Compound 18, (2S,4S)-4-[2-(4-Fluoro-phenyl)-1,1-dimethyl-ethylcarbamoyl]-2-methyl-4-[(4-phenyl-piperidine-1-carbonyl)-amino]-butyric acid] |
| 1200 | 637 (≈ 1250 µM) | Cc1cnc(-c2ccc(C(=O)N[C@@H](C[C@H](C)C(=O)O)C(=O)NC(C)(C)Cc3ccc(F)cc3)cc2)s1 [Compound 19, (2S,4S)-4-[2-(4-Fluoro-phenyl)-1,1-dimethyl-ethylcarbamoyl]-2-methyl-4-[4-(5-methyl-thiazol-2-yl)-benzoylamino]-butyric acid] |
| 1400 | 493 (≈ 956 µM) | C[C@@H](C[C@H](NC(=O)c1cnc(-c2ccc(F)cc2)s1)C(=O)NC(C)(C)Cc1ccc(F)cc1)C(=O)O [Compound 20, (2S,4S)-4-[2-(4-Fluoro-phenyl)-1,1-dimethyl-ethylcarbamoyl]-4-{[2-(4-fluoro-phenyl)-thiazole-5-carbonyl]-amino}-2-methyl-butyric acid] |

The next lines start with the compound.

| SMILES | IC50 [1] [nM] | solubility [2] [µg/mL] |
| --- | --- | --- |
| COc1cc(CNC(=O)[C@H](CC(C)C(=O)O)NC(=O)c2ccc(-c3ccccc3)cc2)cc(OC)c1OC (mixture of isomers) [Compound 1, 4-[(Biphenyl-4-carbonyl)-amino]-2-methyl-4-(3,4,5-trimethoxy-benzylcarbamoyl)-butyric acid] | 13 | 850 |
| C[C@@H](Cc1ccc(F)cc1)NC(=O)[C@H](C[C@H](C)C(=O)O)NC(=O)c1ccc(-c2ccccc2)cc1 (single isomer, unassigned) [Compound 3] | 62 | 159 (≈ 334 µM) |
| CC(Cc1ccc(F)cc1)NC(=O)[C@H](C[C@H](C)C(=O)O)NC(=O)c1ccc(-c2ccccc2)cc1 (single isomer, unassigned) [Compound 17] | 530 | 303 (≈ 636 µM) |
| C[C@@H](C[C@H](NC(=O)c1ccc(-c2ccccc2)cc1)C(=O)NC(C)(C)Cc1cccnc1)C(=O)O [Compound 4, (2S,4S)-4-[(Biphenyl-4-carbonyl)-amino]-4-(1,1-dimethyl-2-pyridin-3-yl-ethylcarbamoyl)-2-methyl-butyric acid] | 66 |  |
| CC(C)(Cc1ccc(F)cc1)NC(=O)[C@H](C[C@H](Cc1ccccc1)C(=O)O)NC(=O)c1ccc(-c2ccccc2)cc1 [Compound 6, (2S,4S)-2-Benzyl-4-[(biphenyl-4-carbonyl)-amino]-4-[2-(4-fluoro-phenyl)-1,1-dimethyl-ethylcarbamoyl]-butyric acid] | 150 | 60 (≈ 106 µM) |
| C[C@@H](C[C@H](NC(=O)c1ccc(-c2ccccn2)cc1)C(=O)NC(C)(C)Cc1ccc(F)cc1)C(=O)O [Compound 10, (2S,4S)-4-[2-(4-Fluoro-phenyl)-1,1-dimethyl-ethylcarbamoyl]-2-methyl-4-(4-pyridin-2-yl-benzoylamino)-butyric acid] | 190 | 883 (≈ 1800 µM) |
| C[C@@H](C[C@H](NC(=O)c1ccc(-c2ccccc2)cn1)C(=O)NC(C)(C)Cc1ccc(F)cc1)C(=O)O [Compound 13, 4-[2-(4-Fluoro-phenyl)-1,1-dimethyl-ethylcarbamoyl]-2-methyl-4-[(5-phenyl-pyridine-2-carbonyl)-amino]-butyric acid] | 330 | 855 (≈ 1740 µM) |
| C[C@@H](C[C@H](NC(=O)c1ccc(-c2ccccc2)nc1)C(=O)NC(C)(C)Cc1ccc(F)cc1)C(=O)O [Compound 14, (2S,4S)-4-[2-(4-Fluoro-phenyl)-1,1-dimethyl-ethylcarbamoyl]-2-methyl-4-[(6-phenyl-pyridine-3-carbonyl)-amino]-butyric acid] | 350 | 775 (≈ 1580 µM) |
